Measurements: publication PMC6360136 (Investigational new drugs, 2018)
Counter-ions that a name gives are not always drawn.

Key:
colon cancer xenograft = colon cancer xenograft mice model, 0.25 mg/kg daily dosing ref 18, 19; cited from earlier work
PANC-1 cells = assay: Cell viability assay; type: cell-based, human; conditions: Homo sapiens, PANC-1, 48 h
EC46 cells = assay: Cell viability assay; type: cell-based, human; conditions: Homo sapiens, Pancreatic cancer cell, 48 h
EC68 cells = assay: Cell viability assay; type: cell-based, human; conditions: Homo sapiens, Pancreatic cancer cell, 48 h

Row | IC50 (PANC-1 cells) [µM] | Structure (SMILES) | tumor growth (colon cancer xenograft) | IC50 (EC46 cells) [µM] | IC50 (EC68 cells) [µM]
1 |  | CC[C@H](C)[C@H]1C(=O)N2CCC[C@@H]2C(=O)O[C@H](C(C)(C)C)C[C@@H](C)C[C@H](O)C(C)(C)C2=N[C@@H](CCC(=O)N[C@@H](Cc3ccc(OC)cc3)C(=O)N(C)[C@@H](C)C(=O)N1C)CS2 [Apratoxin S8, apratoxin S8] | significantly retarded tumor growth |  | 
2 | 13.1 | C#Cc1cccc(Nc2ncnc3cc(OCCOC)c(OCCOC)cc23)c1 [erlotinib hydrochloride, reference compound] |  | 2.41 | 8.96
